Measured values as given in patent US11149031B2, “Substituted N-(3-fluoropropyl)-pyrrolidine compounds, processes for their preparation and therapeutic uses thereof” (SANOFI, priority 2016, dated 2021).
Where two headings read alike, the source gives them in different places.

What was measured:
[1] = target: ERα in MCF7 cells (Homo sapiens (Human), UniProt P03372); experiment: Test C: estrogen receptor degradation activity, ERα in cell western assay in MCF7 cells; type: cell-based; conditions: for DC50: 4 hours post compound addition, ERα in cell western, read-out: Degradation IC50; for % Degradation at 3 μM: 4 hours, relative to fulvestrant
Sequence of ERα in MCF7 cells (P03372 whole entry): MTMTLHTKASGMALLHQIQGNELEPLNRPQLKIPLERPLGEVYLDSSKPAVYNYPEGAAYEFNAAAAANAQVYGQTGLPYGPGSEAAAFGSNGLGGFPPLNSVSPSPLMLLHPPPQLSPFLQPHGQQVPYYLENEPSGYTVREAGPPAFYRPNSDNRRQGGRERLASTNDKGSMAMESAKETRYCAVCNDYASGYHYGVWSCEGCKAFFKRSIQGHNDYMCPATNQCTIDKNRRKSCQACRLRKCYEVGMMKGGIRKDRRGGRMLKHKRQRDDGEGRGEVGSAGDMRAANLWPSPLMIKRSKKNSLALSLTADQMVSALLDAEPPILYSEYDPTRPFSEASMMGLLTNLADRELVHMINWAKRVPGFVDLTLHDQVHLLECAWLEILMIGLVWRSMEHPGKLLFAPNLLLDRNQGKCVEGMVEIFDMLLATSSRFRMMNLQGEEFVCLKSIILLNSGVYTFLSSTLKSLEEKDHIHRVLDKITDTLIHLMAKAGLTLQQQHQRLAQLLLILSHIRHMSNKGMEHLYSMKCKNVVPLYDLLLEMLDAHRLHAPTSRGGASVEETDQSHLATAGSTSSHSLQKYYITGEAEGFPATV
Outline: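 In-cell western: ERα level (green) against DNA stain Syto-64 (red) by integrated intensity. MCF7 cells in hormone-depleted medium exposed 4 h to compound at 3-0.000018 μM final (1:5 series); fulvestrant 0.1 μM as positive control.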

[2] = system: MCF7 cells expressing mutant estrogen receptor Asp 538 Gly; experiment: Test B: cell proliferation/viability assay (CellTiter-Glo) on MCF7 Asp 538 Gly mutant; type: cell-based; conditions: Homo sapiens, MCF7, 168 h, MCF7 cells expressing ER Asp 538 Gly mutant, 7 days of compound exposure, read-out: proliferation MCF7 D538G IC50
Outline: (§1)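 Seven-day compound exposure, 9 concentrations from 3 to 0.000001 μM, in phenol red-free medium with 5% charcoal-stripped serum. ER Tyr537Ser and Asp538Gly lines derive from transfected MCF7 selected to grow without estradiol. Viability from CellTiter-Glo luminescence, background-corrected, as percent of untreated.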

[3] = system: MCF7 cells expressing mutant estrogen receptor Tyr 537 Ser; experiment: Test B: cell proliferation/viability assay (CellTiter-Glo) on MCF7 Tyr 537 Ser mutant; type: cell-based; conditions: Homo sapiens, MCF7, 168 h, MCF7 cells expressing ER Tyr 537 Ser mutant, 7 days of compound exposure, read-out: proliferation MCF7 Y537S IC50
Outline: as §1

[4] = target: His6-ERα298-554 Y537S mutant (ERα ligand-binding domain) (Homo sapiens (Human), UniProt P03372, Y537S); experiment: Test A: biochemical antagonist activity, LanthaScreen TR-FRET ERα coactivator assay, Y537S mutant; conditions: read-out: Antagonism Y537S IC50
Sequence of His6-ERα298-554 Y537S mutant (ERα ligand-binding domain) (P03372 298-554 Y537S): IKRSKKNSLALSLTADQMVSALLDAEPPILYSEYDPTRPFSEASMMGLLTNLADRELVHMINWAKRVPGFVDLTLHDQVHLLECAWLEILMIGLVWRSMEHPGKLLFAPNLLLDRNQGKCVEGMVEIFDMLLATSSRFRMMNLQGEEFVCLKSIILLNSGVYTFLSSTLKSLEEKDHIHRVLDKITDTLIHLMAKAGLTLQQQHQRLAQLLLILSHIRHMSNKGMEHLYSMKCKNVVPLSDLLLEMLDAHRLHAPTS
Outline: (§2)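 TR-FRET 520:495 nm emission ratio read after overnight room-temperature incubation; IC50 derived by 4-parameter logistic fit. Mix: 0.5 nM receptor LBD, 0.5 nM Tb-His6 antibody, 250 nM PGC1a peptide, 3 nM or 10 nM estradiol, pH 7.4 phosphate buffer.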

[5] = target: His6-ERα298-554 D538G mutant (ERα ligand-binding domain) (Homo sapiens (Human), UniProt P03372, D538G); experiment: Test A: biochemical antagonist activity, LanthaScreen TR-FRET ERα coactivator assay, D538G mutant; conditions: read-out: Antagonism D538G IC50
Sequence of His6-ERα298-554 D538G mutant (ERα ligand-binding domain) (P03372 298-554 D538G): as the sequence (P03372 298-554 Y537S) above, with S240Y, D241G counted along it
Outline: as §2

[6] = system: MCF7 cells (breast tumor cells) WT; experiment: Test B: cell proliferation/viability assay (CellTiter-Glo) on MCF7 WT; type: cell-based; conditions: Homo sapiens, MCF7, 168 h, 7 days of compound exposure
Outline: as §1

[7] = target: His6-ERα298-554 WT (ERα ligand-binding domain) (Homo sapiens (Human), UniProt P03372); experiment: Test A: biochemical antagonist activity, LanthaScreen TR-FRET ERα coactivator assay, WT; conditions: read-out: Antagonism WT IC50
Sequence of His6-ERα298-554 WT (ERα ligand-binding domain) (P03372 298-554): as the sequence (P03372 298-554 Y537S) above, with S240Y counted along it
Outline: as §2

[8] = asterisk (*): protocol using 10 nM estradiol

SMILES	DC50 [1] [nM]	% Degradation at 3 μM [1] [%]	IC50 [2] [nM]	IC50 [3] [nM]	IC50 [4, 8] [nM]	IC50 [5, 8] [nM]	IC50 [6] [nM]	IC50 [7, 8] [nM]	IC50 ([4]; protocol with 3 nM estradiol) [nM]	IC50 ([5]; protocol with 3 nM estradiol) [nM]	IC50 ([7]; protocol with 3 nM estradiol) [nM]
CCOc1ccc(C2=C(c3ccc(O[C@H]4CCN(CCCF)C4)cc3)c3cc(F)c(O)cc3OCC2)c(C)c1 [Example 155, 4-(4-ethoxy-2-methyl-phenyl)-7-fluoro-5-[4-[(3S)-1-(3-fluoropropyl)pyrrolidin-3-yl]oxyphenyl]-2,3-dihydro-1-benzoxepin-8-ol]	0.2	81	1	6	228	365	0.4	21			
Oc1cc2c(cc1F)C(c1ccc(O[C@H]3CCN(CCCF)C3)cc1)=C(c1ccc3occc3c1)CCO2 [Example 156, 4-(benzofuran-5-yl)-7-fluoro-5-[4-[(3S)-1-(3-fluoropropyl)pyrrolidin-3-yl]oxyphenyl]-2,3-dihydro-1-benzoxepin-8-ol]	0.4	85	2	14	254	409	0.6	19			
COc1ccc(C2=C(c3ccc(O[C@H]4CCN(CCCF)C4)cc3)c3ccc(O)cc3OCC2)c(C)c1 [Example 157, 5-[4-[(3S)-1-(3-fluoropropyl)pyrrolidin-3-yl]oxyphenyl]-4-(4-methoxy-2-methyl-phenyl)-2,3-dihydro-1-benzoxepin-8-ol]	0.2	90	0.6	4	36	56	0.2	2			
Cc1cc(C2=C(c3ccc(O[C@H]4CCN(CCCF)C4)cc3)c3ccc(O)cc3SCC2)ccc1Cl [Example 162, 4-(4-chloro-3-methyl-phenyl)-5-[4-[(3S)-1-(3-fluoropropyl)pyrrolidin-3-yl]oxyphenyl]-2,3-dihydro-1-benzothiepin-8-ol]	0.8	90	1	5			0.4		19	24	4
Cc1ccc(C2=C(c3ccc(O[C@H]4CCN(CCCF)C4)cc3)c3ccc(O)cc3SCC2)c(F)c1 [Example 164, 4-(2-fluoro-4-methyl-phenyl)-5-[4-[(3S)-1-(3-fluoropropyl)pyrrolidin-3-yl]oxyphenyl]-2,3-dihydro-1-benzothiepin-8-ol]	0.5	91	0.6	5			0.6		9	13	3
Oc1ccc2c(c1)SCCC(c1ccc3cc[nH]c3c1)=C2c1ccc(O[C@H]2CCN(CCCF)C2)cc1 [Example 172, 5-[4-[(3S)-1-(3-fluoropropyl)pyrrolidin-3-yl]oxyphenyl]-4-(1H-indol-6-yl)-2,3-dihydro-1-benzothiepin-8-ol]	0.4	87	2	12			0.2		18	24	6
Oc1ccc2c(c1)SCCC(c1ccc3c(c1)CCN3)=C2c1ccc(O[C@H]2CCN(CCCF)C2)cc1 [Example 176, 5-[4-[(3S)-1-(3-fluoropropyl)pyrrolidin-3-yl]oxyphenyl]-4-indolin-5-yl-2,3-dihydro-1-benzothiepin-8-ol]	0.2	85	9	48			3		20	28	6
Oc1ccc2c(c1)SCCC(c1cccc3[nH]ccc13)=C2c1ccc(O[C@H]2CCN(CCCF)C2)cc1 [Example 178, 5-[4-[(3S)-1-(3-fluoropropyl)pyrrolidin-3-yl]oxyphenyl]-4-(1H-indol-4-yl)-2,3-dihydro-1-benzothiepin-8-ol]	0.4	87	2	16			0.5		7	10	2
